Series [1] is described as follows: Biopharmaceutical classification / solubility statement. The class given is physicochemical.
Series [2] can be described thus: Absorption, distribution, metabolism and excretion after a single 1-mg oral dose of [14C]Compound (A). In kind it is in vivo, human. From the text: Primary phase 1 oxidative pathways included:
1) oxidative O-dealkylation; 2) oxidation at the phenyl cyclopropyl isoxazole moiety; 3) oxidation at the benzothiazole and fused ring structure. Metabolites containing multiple oxidative modifications and/or glucuronidation to oxidative products were also observed in human excreta.

Here are results for one compound from patent US11291661B2, “Pharmaceutical composition” (priority 2019, dated 2022).

Broadly, the Tmax is the time at which the peak concentration occurs.

Turning to `O=C(O)c1cc(F)c2nc(N3C4CC[C@H]3C[C@@H](OCc3c(-c5ccccc5OC(F)(F)F)noc3C3CC3)C4)sc2c1` [Compound (A), 2-[(1R,3r,5S)-3-({5-cyclopropyl-3-[2-(trifluoromethoxy)phenyl]-1,2-oxazol-4-yl}methoxy)-8-azabicyclo[3.2.1]octan-8-yl]-4-fluoro-1,3-benzothiazole-6-carboxylic acid], the water solubility result in series [1] was “low water solubility”. In series [1] (poorly soluble and poorly permeable compound), the “biopharmaceutical classification system class” value is reported as “class IV”. In series [2], the “Faecal excretion of related radioactivity” value is reported as ~65 % of the total dose, the “Unchanged Compound (A) in the plasma” value is listed as ~92 % of total radioactivity and the “urinary excretion of related radioactivity” value is on record as ~29 % of the total dose. The “Mass balance, administered dose recovered in excreta” value in series [2] (312 hours collection period) is given as “approximately 94%”. In series [2] (human, plasma, read-out: half time (t1/2) in plasma (converted)), the half-life is 13.5 h. Moreover, the Cmax in series [2] (human, plasma, read-out: maximum concentration (Cmax) of parent in plasma) stood at 0.0335 µg/mL. The Tmax in series [2] (human, plasma, read-out: median Tmax) was determined as 4 h.
